Source: patent publication US10485800B2, “Mixed lineage kinase inhibitors for HIV/AIDS therapies” (UNIVERSITY OF ROCHESTER, priority 2012, dated 2019)
Where a name gives a salt, the structure may show the parent alone. Read-outs that look alike come from different tables or passages of the source.

Target: MLK3 (Homo sapiens (Human), UniProt Q16584)
Assay: Radiometric filter plate MLK3 assay
Type: biochemical
Conditions: read-out: MK3 IC50
Protocol: After a twenty minute incubation, the reactions were washed through filter plates and read on a scintillation counter. Results are shown in Table 9 below, in which +++ indicates ≤0.1 μM, ++ indicates >0.1 μM and ≤1 μM, and + indicates >1 μM.

[1] = 2 μM cold ATP (Km), 1 μM inactive MKK7b, twenty minute incubation

Chain of MLK3 (Q16584 whole entry): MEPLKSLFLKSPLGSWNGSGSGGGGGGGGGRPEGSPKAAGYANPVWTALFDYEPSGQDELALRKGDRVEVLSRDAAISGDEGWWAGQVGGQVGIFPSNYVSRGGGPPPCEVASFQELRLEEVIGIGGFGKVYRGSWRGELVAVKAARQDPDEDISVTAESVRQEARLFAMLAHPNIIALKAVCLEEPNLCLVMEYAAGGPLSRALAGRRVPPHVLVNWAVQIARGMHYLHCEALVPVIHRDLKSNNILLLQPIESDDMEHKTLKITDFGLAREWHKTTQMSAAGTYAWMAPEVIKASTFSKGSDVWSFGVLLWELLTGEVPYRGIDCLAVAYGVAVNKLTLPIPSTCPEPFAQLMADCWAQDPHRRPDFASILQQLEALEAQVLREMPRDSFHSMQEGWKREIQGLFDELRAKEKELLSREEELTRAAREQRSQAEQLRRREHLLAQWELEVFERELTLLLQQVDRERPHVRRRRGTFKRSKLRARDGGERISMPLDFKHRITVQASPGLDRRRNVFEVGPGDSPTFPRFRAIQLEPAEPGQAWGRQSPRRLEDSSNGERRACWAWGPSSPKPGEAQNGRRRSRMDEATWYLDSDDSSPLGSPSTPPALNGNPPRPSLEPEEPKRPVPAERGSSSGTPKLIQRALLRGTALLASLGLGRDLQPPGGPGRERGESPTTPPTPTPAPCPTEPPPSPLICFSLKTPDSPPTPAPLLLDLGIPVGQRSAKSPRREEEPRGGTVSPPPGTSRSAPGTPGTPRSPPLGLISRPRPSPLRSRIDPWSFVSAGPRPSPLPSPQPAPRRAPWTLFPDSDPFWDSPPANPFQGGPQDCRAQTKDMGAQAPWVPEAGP

IC50 [1] [nM] | IC50 [nM] | SMILES
> 1000 |  | COc1cc(-c2cnc3[nH]c(=S)n(CC4CC4)c3n2)cc(OC)c1OC [Example 127, 1-(cyclopropylmethyl)-6-(3,4,5-trimethoxyphenyl)-1H-imidazo[4,5-b]pyrazine-2(3H)-thione]
 | > 1000 | COc1cc(-c2cnc3c(c2)/C(=C\c2ccncc2)C(=O)N3)cc(OC)c1OC [Example 129, (E)- and (Z)-3-pyridin-4-ylmethylene-5-(3,4,5-trimethoxy-phenyl)-1,3-dihydro-pyrrolo[2,3-b]pyridin-2-one]
> 1000 |  | COc1cc(-c2cnc3c(c2)C(=Cc2ccccc2)C(=O)N3)cc(OC)c1OC [Example 130, 3-benzylidene-5-(3,4,5-trimethoxy-phenyl)-1,3-dihydro-pyrrolo[2,3-b]pyridin-2-one]
> 1000 |  | COc1cc(-c2cnc3c(c2)C(=Cc2cccc(C(N)=O)c2)C(=O)N3)cc(OC)c1OC [Example 132, 3-[2-oxo-5-(3,4,5-trimethoxy-phenyl)-1,2-dihydro-pyrrolo[2,3-b]pyridin-3-ylidenemethyl]-benzamide]
> 1000 |  | COc1cc(-c2cnc3c(c2)C(=Cc2ccc(C#N)cc2)C(=O)N3)cc(OC)c1OC [Example 133, 4-[2-oxo-5-(3,4,5-trimethoxy-phenyl)-1,2-dihydro-pyrrolo[2,3-b]pyridin-3-ylidenemethyl]-benzonitrile]
> 1000 |  | COc1cc(-c2cnc3c(c2)C(=Cc2cccc(C#N)c2)C(=O)N3)cc(OC)c1OC [Example 134, 3-[2-oxo-5-(3,4,5-trimethoxy-phenyl)-1,2-dihydro-pyrrolo[2,3-b]pyridin-3-ylidenemethyl]-benzonitrile]
> 1000 |  | COc1cc(-c2cnc3c(c2)C(Cc2cccnc2)C(=O)N3)cc(OC)c1OC (stereo not drawn) [Example 135, 3-pyridin-3-ylmethyl-5-(3,4,5-trimethoxy-phenyl)-1,3-dihydro-pyrrolo[2,3-b]pyridin-2-one]
> 1000 |  | COc1cc(-c2cnc3c(c2)C(Cc2ccncc2)C(=O)N3)cc(OC)c1OC (stereo not drawn) [Example 136, 3-pyridin-4-ylmethyl-5-(3,4,5-trimethoxy-phenyl)-1,3-dihydro-pyrrolo[2,3-b]pyridin-2-one]
> 1000 |  | COc1cc(-c2cnc3c(c2)C(Cc2ccccc2)C(=O)N3)cc(OC)c1OC (stereo not drawn) [Example 137, 3-benzyl-5-(3,4,5-trimethoxy-phenyl)-1,3-dihydro-pyrrolo[2,3-b]pyridin-2-one]
> 1000 |  | COc1cc(-c2cnc3c(c2)C(Cc2ccc(C(N)=O)cc2)C(=O)N3)cc(OC)c1OC (stereo not drawn) [Example 138, 4-[2-oxo-5-(3,4,5-trimethoxy-phenyl)-2,3-dihydro-1H-pyrrolo[2,3-b]pyridin-3-ylmethyl]-benzamide]
> 1000 |  | CC(=O)N1CCN(Cc2ccc(-c3cnc4[nH]cc(-c5ccc6[nH]ccc6c5)c4c3)cc2)CC1 [Example 140, 1-(4-{4-[3-(1H-indol-5-yl)-1H-pyrrolo[2,3-b]pyridin-5-yl]-benzyl}-piperazin-1-yl)-ethanone]
< 100 |  | CN1CCN(Cc2ccc(-c3cnc4[nH]cc(-c5ccc6[nH]ccc6c5)c4c3)cc2)CC1=O [Example 141, 4-{4-[3-(1H-indol-5-yl)-1H-pyrrolo[2,3-b]pyridin-5-yl]-benzyl}-1-methyl-piperazin-2-one]
< 100 |  | O=C1CN(Cc2ccc(-c3cnc4[nH]cc(-c5ccc6[nH]ccc6c5)c4c3)cc2)CCN1 [Example 142, 4-{4-[3-(1H-indol-5-yl)-1H-pyrrolo[2,3-b]pyridin-5-yl]-benzyl}-piperazin-2-one]
< 100 |  | CN1CCN(Cc2cccc(-c3cnc4[nH]cc(-c5ccc6[nH]ccc6c5)c4c3)c2)CC1=O [Example 143, 4-{3-[3-(1H-indol-5-yl)-1H-pyrrolo[2,3-b]pyridin-5-yl]-benzyl}-1-methyl-piperazin-2-one]
< 100 |  | CC(C)(C)OC(=O)N1CCN(Cc2ccc(-c3cnc4[nH]cc(-c5ccc6[nH]ccc6c5)c4c3)cc2)CC1 [Example 144, 4-{4-[3-(1H-indol-5-yl)-1H-pyrrolo[2,3-b]pyridin-5-yl]-benzyl}-piperazine-1-carboxylic acid tert-butyl ester]
< 100 |  | CC(=O)N1CCN(C(=O)c2ccc(-c3cnc4[nH]cc(-c5ccc6[nH]ccc6c5)c4c3)cc2)CC1 [Example 146, 1-(4-{4-[3-(1H-indol-5-yl)-1H-pyrrolo[2,3-b]pyridin-5-yl]-benzoyl}-piperazin-1-yl)-ethanone]
 | < 100 | CN1CCN(C(=O)c2cccc(-c3cnc4[nH]cc(-c5ccc6[nH]ccc6c5)c4c3)c2)CC1 [Example 147, {3-[3-(1H-indol-5-yl)-1H-pyrrolo[2,3-b]pyridin-5-yl]-phenyl}-(4-methyl-piperazin-1-yl)-methanone]
< 100 |  | CC(C)(C)OC(=O)N1CCN(C(=O)c2ccc(-c3cnc4[nH]cc(-c5ccc(C(N)=O)cc5)c4c3)cc2)CC1 [Example 148, 4-{4-[3-(4-carbamoyl-phenyl)-1H-pyrrolo[2,3-b]pyridin-5-yl]-benzoyl}-piperazine-1-carboxylic acid tert-butyl ester]
< 100 |  | CC(C)(C)OC(=O)N1CCN(C(=O)c2cccc(-c3cnc4[nH]cc(-c5ccc(C(N)=O)cc5)c4c3)c2)CC1 [Example 151, 4-{3-[3-(4-carbamoyl-phenyl)-1H-pyrrolo[2,3-b]pyridin-5-yl]-benzoyl}-piperazine-1-carboxylic acid tert-butyl ester]
100 to 1000 |  | COc1cc(-c2cc3c(-c4ccc(C(N)=O)cc4)c[nH]c3[n+]([O-])c2)cc(OC)c1OC [Example 154, 4-[7-oxy-5-(3,4,5-trimethoxy-phenyl)-1H-pyrrolo[2,3-b]pyridin-3-yl]-benzamide]
< 100 |  | CN1CCN(Cc2cccc(-c3cnc4[nH]cc(-c5ccc(C(N)=O)cc5)c4c3)c2)CC1 [Example 156, 4-{5-[3-(4-methyl-piperazin-1-ylmethyl)-phenyl]-1H-pyrrolo[2,3-b]pyridin-3-yl}-benzamide]

IC50 [1] [nM] | IC50 [nM] | SMILES
< 100 |  | CC(=O)N1CCN(Cc2ccc(-c3cnc4[nH]cc(-c5ccc(C(N)=O)cc5)c4c3)cc2)CC1 [Example 157, 4-{5-[4-(4-acetyl-piperazin-1-ylmethyl)-phenyl]-1H-pyrrolo[2,3-b]pyridin-3-yl}-benzamide]
< 100 |  | CN1CCN(Cc2ccc(-c3cnc4[nH]cc(-c5ccc(C(N)=O)cc5)c4c3)cc2)CC1=O [Example 158, 4-{5-[4-(4-methyl-3-oxo-piperazin-1-ylmethyl)-phenyl]-1H-pyrrolo[2,3-b]pyridin-3-yl}-benzamide]
< 100 |  | COc1cc(-c2cnc3[nH]cc(-c4ccc(CNC(C)=O)cc4)c3c2)cc(OC)c1OC [Example 159, N-{4-[5-(3,4,5-Trimethoxy-phenyl)-1H-pyrrolo[2,3-b]pyridin-3-yl]-benzyl}-acetamide]
< 100 |  | CN1CCN(Cc2ccc(-c3c[nH]c4ncc(-c5ccc(C(N)=O)cc5)cc34)cc2)CC1 [Example 162, 4-{3-[4-(4-methyl-piperazin-1-ylmethyl)-phenyl]-1H-pyrrolo[2,3-b]pyridin-5-yl}-benzamide]
> 1000 |  | CN1CCN(Cc2ccc(-c3c[nH]c4ncc(-c5ccc6[nH]ccc6c5)cc34)cc2)CC1 [Example 163, 5-(1H-indol-5-yl)-3-[4-(4-methyl-piperazin-1-ylmethyl)-phenyl]-1H-pyrrolo[2,3-b]pyridine]
 | > 1000 | CNC(=O)c1ccc(-c2c[nH]c3ncc(-c4cc(OC)c(OC)c(OC)c4)cc23)cc1 [Example 164, N-methyl-4-[5-(3,4,5-trimethoxy-phenyl)-1H-pyrrolo[2,3-b]pyridin-3-yl]-benzamide]
< 100 |  | CNC(=O)c1ccc(-c2c[nH]c3ncc(-c4ccc(CN5CCN(C)CC5)cc4)cc23)cc1 [Example 165, N-methyl-4-{5-[4-(4-methyl-piperazin-1-ylmethyl)-phenyl]-1H-pyrrolo[2,3-b]pyridin-3-yl}-benzamide]
 | 100 to 1000 | c1cc2cc(-c3c[nH]c4ncc(-c5ccc(CN6CCNCC6)cc5)cc34)ccc2[nH]1 [Example 168, 3-(1H-indol-5-yl)-5-(4-(piperazin-1-ylmethyl)phenyl)-1H-pyrrolo[2,3-b]pyridine]
> 1000 |  | CN1CCN(Cc2ccc(-c3cnc4[nH]cc(-c5ccc(F)cc5)c4c3)cc2)CC1 [Example 169]
> 1000 |  | CN1CCN(Cc2ccc(-c3cnc4[nH]cc(-c5ccc(C(F)(F)F)cc5)c4c3)cc2)CC1 [Example 170]
 | 100 to 1000 | COc1ccc(-c2c[nH]c3ncc(-c4ccc(CN5CCN(C)CC5)cc4)cc23)cc1 [Example 171]
 | 100 to 1000 | Cc1cc2cc(-c3c[nH]c4ncc(-c5ccc(CN6CCN(C)CC6)cc5)cc34)ccc2[nH]1 [Example 172]
 | 100 to 1000 | CN1CCN(Cc2ccc(-c3cnc4[nH]cc(-c5ccc6[nH]ncc6c5)c4c3)cc2)CC1 [Example 173]
 | 100 to 1000 | CN1CCN(Cc2ccc(-c3cnc4[nH]cc(-c5ccc6c(c5)CC(=O)N6)c4c3)cc2)CC1 [Example 174]
 | 100 to 1000 | CN1CCN(Cc2ccc(-c3cnc4[nH]cc(-c5ccc6scnc6c5)c4c3)cc2)CC1 [Example 175]
 | 100 to 1000 | Cc1c[nH]c2ccc(-c3c[nH]c4ncc(-c5ccc(CN6CCN(C)CC6)cc5)cc34)cc12 [Example 176]
< 100 |  | CN1CCN(Cc2ccc(-c3cnc4[nH]cc(-c5ccc6nccc(O)c6c5)c4c3)cc2)CC1 [Example 177]
 | 100 to 1000 | CN1CCN(Cc2ccc(-c3cnc4[nH]cc(-c5ccc6c(O)ccnc6c5)c4c3)cc2)CC1 [Example 178]
< 100 |  | CN1CCN(Cc2ccc(-c3cnc4[nH]cc(-c5ccc6ncccc6c5)c4c3)cc2)CC1 [Example 180]
 | < 100 | [2H]c1cc2cc(-c3c[nH]c4ncc(-c5ccc(CN6CCN(C)CC6)cc5)cc34)ccc2[nH]1 [Example 181]

SMILES | IC50 [1] [nM] | IC50 [nM]
NC(=O)c1ccc(-c2c[nH]c3ncc(-c4ccc(C(=O)N5CCNCC5)cc4)cc23)cc1 [Example 149, 4-{5-[4-(piperazine-1-carbonyl)-phenyl]-1H-pyrrolo[2,3-b]pyridin-3-yl}-benzamide, hydrochloride salt] | < 100 | 
